Experimental findings from patent US20230062119A1, “USE OF BIOMARKERS IN IDENTIFYING PATIENTS THAT WILL BE RESPONSIVE TO TREATMENT WITH A PRMT5 INHIBITOR” (Merck Sharp & Dohme LLC, priority 2019, published 2023) are described below.

pEC50: −log10 of the molar value.

A word on the pEC50: it is the negative decadic logarithm of the EC50, by convention in mol/L.

In the first test the target is T1, Full-length (FL)-PRMT5-MEP50 enzyme complex (Homo sapiens, UniProt O14744).
T1 construct: Full-length (FL)-PRMT5-MEP50 enzyme complex (recombinant proteins from baculovirus-transfected Sf21 cells: FL-PRMT5; MW=73837 kDa and FL-MEP50; MW=38614); made in house; host or cells: baculovirus-transfected Sf21 insect cells
T1 sequence (O14744 whole entry): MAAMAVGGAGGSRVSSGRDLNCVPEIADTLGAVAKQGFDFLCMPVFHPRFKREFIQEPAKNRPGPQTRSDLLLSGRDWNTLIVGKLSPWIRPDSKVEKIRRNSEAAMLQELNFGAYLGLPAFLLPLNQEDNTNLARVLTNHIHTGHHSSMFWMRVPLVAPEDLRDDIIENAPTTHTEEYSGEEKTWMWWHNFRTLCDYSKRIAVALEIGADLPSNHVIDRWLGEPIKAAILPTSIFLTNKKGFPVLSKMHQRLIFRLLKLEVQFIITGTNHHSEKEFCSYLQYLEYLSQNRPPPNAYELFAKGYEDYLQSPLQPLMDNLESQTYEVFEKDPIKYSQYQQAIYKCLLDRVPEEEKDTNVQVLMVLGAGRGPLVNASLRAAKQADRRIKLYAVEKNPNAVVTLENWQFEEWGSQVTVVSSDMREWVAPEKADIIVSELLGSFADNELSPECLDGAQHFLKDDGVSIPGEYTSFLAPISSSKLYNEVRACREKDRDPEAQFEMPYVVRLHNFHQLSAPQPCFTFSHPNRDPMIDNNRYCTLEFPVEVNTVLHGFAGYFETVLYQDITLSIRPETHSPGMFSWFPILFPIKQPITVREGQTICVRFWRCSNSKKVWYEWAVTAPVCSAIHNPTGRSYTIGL
T1 sequence (Q9BQA1 whole entry partner): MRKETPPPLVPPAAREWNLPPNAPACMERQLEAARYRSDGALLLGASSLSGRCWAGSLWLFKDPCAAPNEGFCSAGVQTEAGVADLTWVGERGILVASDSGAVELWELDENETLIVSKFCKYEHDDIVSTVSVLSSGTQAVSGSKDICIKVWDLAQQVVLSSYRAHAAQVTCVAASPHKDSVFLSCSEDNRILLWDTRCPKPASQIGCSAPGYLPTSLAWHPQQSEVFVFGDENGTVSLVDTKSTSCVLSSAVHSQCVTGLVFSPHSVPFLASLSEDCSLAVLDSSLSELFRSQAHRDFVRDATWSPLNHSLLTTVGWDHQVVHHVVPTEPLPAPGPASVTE
Description: PRMT5-MEP50 Enzyme Methylation Assay. It is filed as biochemical. The note with it: one EC50: 4 parameters single site sigmoidal model; EC50 1: first value of 7 parameters biphasic model; 1.0 nM PRMT5-MEP50, 75 nM biotinylated peptide, 15 μM SAM; read-out: Enzyme Methylation Assay (EC50 or EC50 1). Put shortly:
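Compound was pre-incubated 60 min at 37°C with 1.0 nM enzyme and 15 μM SAM (final) in 50 mM Bicine pH 8.0, then 75 nM biotinylated H4R3(Me1) peptide was added and reacted 150 min; twenty-point 1:2 titration from 100000 nM, 1% DMSO. Formic acid quench; SAMDI mass spectrometry measured Me1-to-Me2 conversion, EC50 by 4- or 7-parameter regression.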
As for `Cc1nc(N)c2ccn([C@@H]3O[C@@H]4[C@@H](Oc5ccc6cc(Br)c(N)nc6c5)CC[C@]4(O)[C@H]3O)c2n1` [Example 63, (2R,3R,3aS,6S,6aR)-2-(4-amino-2-methyl-7H-pyrrolo[2,3-d]pyrimidin-7-yl)-6-((2-amino-3-bromoquinolin-7-yl)oxy)hexahydro-3aH-cyclopenta[b]furan-3,3a-diol], the pEC50 is 9.40. For `Cc1cn([C@@H]2O[C@@H]3[C@H](Cc4ccc5cc(Cl)c(N)nc5c4)CC[C@]3(O)[C@H]2O)c2ncnc(N)c12` [Example 66, (2R,3R,3aS,6S,6aR)-6-((2-amino-3-chloroquinolin-7-yl)methyl)-2-(4-amino-5-methyl-7H-pyrrolo[2,3-d]pyrimidin-7-yl)hexahydro-3aH-cyclopenta[b]furan-3,3a-diol], the negative-log EC50 (pEC50) is 9.52.

Consider `Nc1nc2cc(C[C@@H]3CC[C@@]4(O)[C@@H]3O[C@@H](n3ccc5c(N)ncnc53)[C@@H]4O)ccc2cc1Cl` [Example 67, (2R,3R,3aS,6S,6aR)-6-((2-amino-3-chloroquinolin-7-yl)methyl)-2-(4-amino-7H-pyrrolo[2,3-d]pyrimidin-7-yl)hexahydro-3aH-cyclopenta[b]furan-3,3a-diol], for which the pEC50 was 9.10. On the same count and under the same terms, the value for `Nc1nc2cc(C[C@@H]3CC[C@@]4(O)[C@@H]3O[C@@H](n3cc(F)c5c(N)ncnc53)[C@@H]4O)ccc2cc1Cl` [Example 68, (2R,3R,3aS,6S,6aR)-6-((2-amino-3-chloroquinolin-7-yl)methyl)-2-(4-amino-5-fluoro-7H-pyrrolo[2,3-d]pyrimidin-7-yl)hexahydro-3aH-cyclopenta[b]furan-3,3a-diol] was 9.30. Consider `Cc1cn([C@@H]2O[C@@H]3[C@H](Cc4ccc5cc(Br)c(N)nc5c4)CC[C@]3(O)[C@H]2O)c2ncnc(N)c12` [Example 70, (2R,3R,3aS,6S,6aR)-6-((2-amino-3-bromoquinolin-7-yl)methyl)-2-(4-amino-5-methyl-7H-pyrrolo[2,3-d]pyrimidin-7-yl)hexahydro-3aH-cyclopenta[b]furan-3,3a-diol 2,2,2-trifluoroacetate], for which the negative-log EC50 (pEC50) is 9.40. Still for that read-out and setting: then `Nc1nc2cc(O[C@H]3CC[C@@]4(O)[C@@H]3O[C@@H](n3ccc5c(N)ncnc53)[C@@H]4O)ccc2cc1F` [Example 71, (2R,3R,3aS,6S,6aR)-6-((2-amino-3-fluoroquinolin-7-yl)oxy)-2-(4-amino-7H-pyrrolo[2,3-d]pyrimidin-7-yl)hexahydro-3aH-cyclopenta[b]furan-3,3a-diol], with 8.80; and `Nc1nc2cc(O[C@H]3CC[C@@]4(O)[C@@H]3O[C@@H](n3ccc5c(N)ncnc53)[C@@H]4O)ccc2cc1Cl` [Example 72, (2R,3R,3aS,6S,6aR)-6-((2-amino-3-chloroquinolin-7-yl)oxy)-2-(4-amino-7H-pyrrolo[2,3-d]pyrimidin-7-yl)hexahydro-3aH-cyclopenta[b]furan-3,3a-diol], with 9.05.

Consider `Nc1nc2cc(O[C@H]3CC[C@@]4(O)[C@@H]3O[C@@H](n3cc(F)c5c(N)ncnc53)[C@@H]4O)ccc2cc1F` [Example 73, (2R,3R,3aS,6S,6aR)-6-((2-amino-3-fluoroquinolin-7-yl)oxy)-2-(4-amino-5-fluoro-7H-pyrrolo[2,3-d]pyrimidin-7-yl)hexahydro-3aH-cyclopenta[b]furan-3,3a-diol], for which the pEC50 was 9.40. As to `Nc1nc2cc(O[C@H]3CC[C@@]4(O)[C@@H]3O[C@@H](n3cc(F)c5c(N)ncnc53)[C@@H]4O)ccc2cc1Cl` [Example 74, (2R,3R,3aS,6S,6aR)-6-((2-amino-3-chloroquinolin-7-yl)oxy)-2-(4-amino-5-fluoro-7H-pyrrolo[2,3-d]pyrimidin-7-yl)hexahydro-3aH-cyclopenta[b]furan-3,3a-diol], the pEC50 is 9.52. Regarding `Nc1ncnc2c1ccn2[C@@H]1O[C@@H]2[C@@H](Oc3ccc4cc5c(nc4c3)NCC5)CC[C@]2(O)[C@H]1O` [Example 75, (2R,3R,3aS,6S,6aR)-2-(4-amino-7H-pyrrolo[2,3-d]pyrimidin-7-yl)-6-((2,3-dihydro-1H-pyrrolo[2,3-b]quinolin-7-yl)oxy)hexahydro-3aH-cyclopenta[b]furan-3,3a-diol], the negative-log EC50 (pEC50) is 9.15. On the same count and under the same terms, the value for `Nc1nc2cc(O[C@H]3CC[C@@]4(O)[C@@H]3O[C@@H](n3ccc5c(CO)ncnc53)[C@@H]4O)ccc2cc1Br` [Example 77, (2R,3R,3aS,6S,6aR)-6-[(2-amino-3-bromoquinolin-7-yl)oxy]-2-[4-(hydroxymethyl)-7H-pyrrolo[2,3-d]pyrimidin-7-yl]hexahydro-3aH-cyclopenta[b]furan-3,3a-diol] was 8.70; that for `CC(C)(O)c1ncnc2c1ccn2[C@@H]1O[C@@H]2[C@@H](Oc3ccc4cc(Br)c(N)nc4c3)CC[C@]2(O)[C@H]1O` [Example 78, (2R,3R,3aS,6S,6aR)-6-[(2-amino-3-bromoquinolin-7-yl)oxy]-2-[4-(2-hydroxypropan-2-yl)-7H-pyrrolo[2,3-d]pyrimidin-7-yl]hexahydro-3aH-cyclopenta[b]furan-3,3a-diol] was 7.88. Still for that read-out and setting: then `Cc1nc(C)c2ccn([C@@H]3O[C@@H]4[C@@H](Oc5ccc6cc(Br)c(N)nc6c5)CC[C@]4(O)[C@H]3O)c2n1` [Example 80, (2R,3R,3aS,6S,6aR)-6-((2-amino-3-bromoquinolin-7-yl)oxy)-2-(2,4-dimethyl-7H-pyrrolo[2,3-d]pyrimidin-7-yl)hexahydro-3aH-cyclopenta[b]furan-3,3a-diol 2,2,2-trifluoroacetate], with 8.54; and `Cc1nc(C)c2ccn([C@@H]3O[C@@H]4[C@H](Cc5ccc6cc(Br)c(N)nc6c5)CC[C@]4(O)[C@H]3O)c2n1` [Example 81, (2R,3R,3aS,6S,6aR)-6-((2-amino-3-bromoquinolin-7-yl)methyl)-2-(2,4-dimethyl-7H-pyrrolo[2,3-d]pyrimidin-7-yl)hexahydro-3aH-cyclopenta[b]furan-3,3a-diol], with 9.15. In the case of `CC(C)c1ncnc2c1ccn2[C@@H]1O[C@@H]2[C@H](Cc3ccc4cc(Br)c(N)nc4c3)CC[C@]2(O)[C@H]1O` [Example 83, (2R,3R,3aS,6S,6aR)-6-((2-amino-3-bromoquinolin-7-yl)methyl)-2-(4-isopropyl-7H-pyrrolo[2,3-d]pyrimidin-7-yl)hexahydro-3aH-cyclopenta[b]furan-3,3a-diol], the pEC50 is 8.92.

Turning to `Cc1ncnc2c1c(F)cn2[C@@H]1O[C@@H]2[C@H](Cc3ccc4cc(Br)c(N)nc4c3)CC[C@]2(O)[C@H]1O` [Example 84, (2R,3R,3aS,6S,6aR)-6-((2-amino-3-bromoquinolin-7-yl)methyl)-2-(5-fluoro-4-methyl-7H-pyrrolo[2,3-d]pyrimidin-7-yl)hexahydro-3aH-cyclopenta[b]furan-3,3a-diol], the pEC50 was 9.22.

As to `Nc1nc2cc(O[C@H]3CC[C@@]4(O)[C@@H]3O[C@@H](n3ccc5cncnc53)[C@@H]4O)ccc2cc1Br` [Example 85, (2R,3R,3aS,6S,6aR)-6-((2-amino-3-bromoquinolin-7-yl)oxy)-2-(7H-pyrrolo[2,3-d]pyrimidin-7-yl)hexahydro-3aH-cyclopenta[b]furan-3,3a-diol], the pEC50 was 8.92.

`Cc1ncnc2c1ccn2[C@@H]1O[C@@H]2[C@@H](Oc3ccc4cc(F)c(N)nc4c3)CC[C@]2(O)[C@H]1O` [Example 86, (2R,3R,3aS,6S,6aR)-6-((2-amino-3-fluoroquinolin-7-yl)oxy)-2-(4-methyl-7H-pyrrolo[2,3-d]pyrimidin-7-yl)hexahydro-3aH-cyclopenta[b]furan-3,3a-diol]: the pEC50 was 9.30. Regarding `Nc1nc2cc(C[C@@H]3CC[C@@]4(O)[C@@H]3O[C@@H](n3ccc5c(C6CC6)ncnc53)[C@@H]4O)ccc2cc1Br` [Example 87, (2R,3R,3aS,6S,6aR)-6-((2-amino-3-bromoquinolin-7-yl)methyl)-2-(4-cyclopropyl-7H-pyrrolo[2,3-d]pyrimidin-7-yl)hexahydro-3aH-cyclopenta[b]furan-3,3a-diol], the pEC50 is 9.30.

For the compound `Cc1ncnc2c1ccn2[C@@H]1O[C@@H]2[C@H](Cc3ccc4cc(C(F)(F)F)c(N)nc4c3)CC[C@]2(O)[C@H]1O` [Example 88, (2R,3R,3aS,6S,6aR)-6-((2-amino-3-(trifluoromethyl)quinolin-7-yl)methyl)-2-(4-methyl-7H-pyrrolo[2,3-d]pyrimidin-7-yl)hexahydro-3aH-cyclopenta[b]furan-3,3a-diol], the pEC50 was 9.70. Regarding `Cc1ncnc2c1ccn2[C@@H]1O[C@@H]2[C@@H](Oc3ccc4cc5c(nc4c3)NCC5)CC[C@]2(O)[C@H]1O` [Example 89, (2R,3R,3aS,6S,6aR)-6-((2,3-dihydro-1H-pyrrolo[2,3-b]quinolin-7-yl)oxy)-2-(4-methyl-7H-pyrrolo[2,3-d]pyrimidin-7-yl)hexahydro-3aH-cyclopenta[b]furan-3,3a-diol], the negative-log EC50 (pEC50) is 8.89.

With `Cc1nc(C)c2ccn([C@@H]3O[C@@H]4[C@H](Cc5ccc6cc(F)c(N)nc6c5)CC[C@]4(O)[C@H]3O)c2n1` [Example 90, (2R,3R,3aS,6S,6aR)-6-((2-amino-3-fluoroquinolin-7-yl)methyl)-2-(2,4-dimethyl-7H-pyrrolo[2,3-d]pyrimidin-7-yl)hexahydro-3aH-cyclopenta[b]furan-3,3a-diol], the pEC50 was 9.05. The same measure, in the same setting: the value for `Cc1nc(C)c2ccn([C@@H]3O[C@@H]4[C@H](Cc5ccc6cc(Cl)c(N)nc6c5)CC[C@]4(O)[C@H]3O)c2n1` [Example 91, (2R,3R,3aS,6S,6aR)-6-((2-amino-3-chloroquinolin-7-yl)methyl)-2-(2,4-dimethyl-7H-pyrrolo[2,3-d]pyrimidin-7-yl)hexahydro-3aH-cyclopenta[b]furan-3,3a-diol] was 9.40.

Staying with this test, now noted: second EC50 of 7 parameters biphasic model; 1.0 nM PRMT5-MEP50, 75 nM biotinylated peptide, 15 μM SAM; read-out: Enzyme Methylation Assay (EC50 2).
`Nc1nc2cc(O[C@H]3CC[C@@]4(O)[C@@H]3O[C@@H](n3ccc5c(CO)ncnc53)[C@@H]4O)ccc2cc1Br` [Example 77, (2R,3R,3aS,6S,6aR)-6-[(2-amino-3-bromoquinolin-7-yl)oxy]-2-[4-(hydroxymethyl)-7H-pyrrolo[2,3-d]pyrimidin-7-yl]hexahydro-3aH-cyclopenta[b]furan-3,3a-diol]: the pEC50 is 6.61.

For `Nc1nc2cc(O[C@H]3CC[C@@]4(O)[C@@H]3O[C@@H](n3ccc5cncnc53)[C@@H]4O)ccc2cc1Br` [Example 85, (2R,3R,3aS,6S,6aR)-6-((2-amino-3-bromoquinolin-7-yl)oxy)-2-(7H-pyrrolo[2,3-d]pyrimidin-7-yl)hexahydro-3aH-cyclopenta[b]furan-3,3a-diol], the pEC50 is 6.61.

As to `Cc1ncnc2c1ccn2[C@@H]1O[C@@H]2[C@@H](Oc3ccc4cc(F)c(N)nc4c3)CC[C@]2(O)[C@H]1O` [Example 86, (2R,3R,3aS,6S,6aR)-6-((2-amino-3-fluoroquinolin-7-yl)oxy)-2-(4-methyl-7H-pyrrolo[2,3-d]pyrimidin-7-yl)hexahydro-3aH-cyclopenta[b]furan-3,3a-diol], the pEC50 is 7.20.
